Source: ChEMBL document CHEMBL1154855 (Eur J Med Chem, 2010)

System: Vaccinia virus
Assay: Antiviral activity against Vaccinia virus infected in HEL cells assessed as protection from virus-induced cytopathogenicity after 2 to 3 days by MTT assay
Assay type: functional, organism-based
Conditions: Orthopoxvirus vaccinia

Compound | EC50
COc1cc(/C=C/C(=O)CC(=O)/C=C/c2ccc(OC(=O)CCC(NC(=O)c3ccc(NCc4cnc5nc(N)[nH]c(=O)c5n4)cc3)C(=O)O)c(OC)c2)ccc1OC(=O)CCC(NC(=O)c1ccc(NCc2cnc3nc(N)[nH]c(=O)c3n2)cc1)C(=O)O (stereo not drawn) | > 0.082 µM
CCCCCCCCCC(=O)Oc1ccc(/C=C/C(=O)CC(=O)/C=C/c2ccc(OC(=O)CCCCCCCCC)c(OC)c2)cc1OC | > 0.147 µM
COc1cc(/C=C/C(=O)CC(=O)/C=C/c2ccc(OC(=O)[C@H](Cc3ccccc3)NC(=O)[C@@H](N)Cc3c[nH]c4ccccc34)c(OC)c2)ccc1OC(=O)[C@H](Cc1ccccc1)NC(=O)[C@@H](N)Cc1c[nH]c2ccccc12 | > 0.038 µM
COc1cc(/C=C/C(=O)C(CCOC(=O)CCC(NC(=O)c2ccc(NCc3cnc4nc(N)[nH]c(=O)c4n3)cc2)C(=O)O)C(=O)/C=C/c2ccc(O)c(OC)c2)ccc1O (stereo not drawn) | > 0.011 µM
COc1cc(/C=C/C(=O)CC(=O)/C=C/c2ccc(OCCOC(=O)CCC(NC(=O)c3ccc(NCc4cnc5nc(N)[nH]c(=O)c5n4)cc3)C(=O)O)c(OC)c2)ccc1O (stereo not drawn) | > 0.119 µM
O=c1[nH]c(=O)n([C@H]2C[C@H](O)[C@@H](CO)O2)cc1/C=C/Br [BRIVUDINE] | 2 µM
Nc1nc2c(ncn2COC(CO)CO)c(=O)[nH]1 [GANCICLOVIR] | > 100 µM
NC(=O)c1ncn([C@@H]2O[C@H](CO)[C@@H](O)[C@H]2O)n1 [RIBAVIRIN] | 85 µM
